From ChEMBL document CHEMBL1201862, “PubChem BioAssay data set” (2004)
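Tested at 5 concentrations; 48 h exposure; 96-well plates; endpoints linearly interpolated, else capped at highest concentration. Here, GI50 denotes the concentration required for 50% inhibition of growth.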 Calls of active or inactive are those of the source. No stated cut-off is given here; in the data, active = GI50 up to about 1.1 µM and inactive = higher.

How the values were obtained:
Assay in all cases: NCI-60 cell line screen, 48 h
RPMI-8226 = system: RPMI-8226
786-0 = system: 786-0
SK-MEL-5 = system: SK-MEL-5
SW-620 = system: SW-620
MCF7 = system: MCF7
HOP-62 = system: HOP-62
RXF 393 = system: RXF 393
U-251 = system: U-251
SN12C = system: SN12C
A549 = system: A549
SNB-75 = system: SNB-75
UACC-257 = system: UACC-257
SF-539 = system: SF-539
NCI-H23 = system: NCI-H23
COLO 205 = system: COLO 205
OVCAR-4 = system: OVCAR-4
NCI-H522 = system: NCI-H522
HOP-92 = system: HOP-92
KM12 = system: KM12
ACHN = system: ACHN
MDA-MB-231 = system: MDA-MB-231
SF-268 = system: SF-268
Malme-3M = system: Malme-3M
IGROV-1 = system: IGROV-1
TK-10 = system: TK-10
HL-60 = system: HL-60
SK-OV-3 = system: SK-OV-3
K562 = system: K562
NCI-H460 = system: NCI-H460
OVCAR-3 = system: OVCAR-3
SF-295 = system: SF-295
MDA-N = system: MDA-N
OVCAR-8 = system: OVCAR-8
OVCAR-5 = system: OVCAR-5
SNB-19 = system: SNB-19
M14 = system: M14
HCT-15 = system: HCT-15
CCRF-CEM = system: CCRF-CEM
Hs-578T = system: Hs-578T
UACC-62 = system: UACC-62
LOX IMVI = system: LOX IMVI
PC-3 = system: PC-3
NCI-H226 = system: NCI-H226
NCI/ADR-RES = system: NCI/ADR-RES
DU-145 = system: DU-145
HT-29 = system: HT-29
MDA-MB-435 = system: MDA-MB-435
BT-549 = system: BT-549
SK-MEL-28 = system: SK-MEL-28
HCT-116 = system: HCT-116
CAKI-1 = system: CAKI-1
EKVX = system: EKVX
A498 = system: A498
MOLT-4 = system: MOLT-4
T47D = system: T47D
SK-MEL-2 = system: SK-MEL-2
HCC 2998 = system: HCC 2998
UO-31 = system: UO-31

## COC(=O)C1=C(C)NC2(C)OC(C)(O)C(C(C)=O)C12C(C)=O (stereo not drawn)
RPMI-8226
  GI50: 61.1 µM (inactive)
786-0
  GI50: > 100 µM (inactive)
SK-MEL-5
  GI50: > 100 µM (inactive)
SW-620
  GI50: > 100 µM (inactive)
MCF7
  GI50: > 100 µM (inactive)
HOP-62
  GI50: > 100 µM (inactive)
RXF 393
  GI50: 57.7 µM (inactive)
U-251
  GI50: 43.7 µM (inactive)
SN12C
  GI50: 47.6 µM (inactive)
A549
  GI50: > 100 µM (inactive)
SNB-75
  GI50: 71.8 µM (inactive)
UACC-257
  GI50: > 100 µM (inactive)
SF-539
  GI50: 24.3 µM (inactive)
NCI-H23
  GI50: > 100 µM (inactive)
COLO 205
  GI50: 46.8 µM (inactive)
OVCAR-4
  GI50: > 100 µM (inactive)
NCI-H522
  GI50: > 100 µM (inactive)
HOP-92
  GI50: 33.2 µM (inactive)
KM12
  GI50: > 100 µM (inactive)
ACHN
  GI50: 70.6 µM (inactive)
MDA-MB-231
  GI50: 20.7 µM (inactive)
SF-268
  GI50: 28.1 µM (inactive)
Malme-3M
  GI50: 23.4 µM (inactive)
IGROV-1
  GI50: > 100 µM (inactive)
TK-10
  GI50: > 100 µM (inactive)
HL-60
  GI50: > 100 µM (inactive)
SK-OV-3
  GI50: 28.5 µM (inactive)
K562
  GI50: > 100 µM (inactive)
NCI-H460
  GI50: > 100 µM (inactive)
OVCAR-3
  GI50: > 100 µM (inactive)
SF-295
  GI50: 32.1 µM (inactive)
MDA-N
  GI50: > 100 µM (inactive)
OVCAR-8
  GI50: > 100 µM (inactive)
OVCAR-5
  GI50: 31.5 µM (inactive)
SNB-19
  GI50: > 100 µM (inactive)
M14
  GI50: 60.5 µM (inactive)
HCT-15
  GI50: > 100 µM
CCRF-CEM
  GI50: 31.6 µM (inactive)
Hs-578T
  GI50: 25.4 µM (inactive)
UACC-62
  GI50: > 100 µM (inactive)
LOX IMVI
  GI50: 89.5 µM (inactive)
PC-3
  GI50: 13.9 µM (inactive)
NCI-H226
  GI50: 16.5 µM (inactive)
NCI/ADR-RES
  GI50: > 100 µM (inactive)
DU-145
  GI50: > 100 µM (inactive)
HT-29
  GI50: 81.3 µM (inactive)
MDA-MB-435
  GI50: > 100 µM (inactive)
BT-549
  GI50: 66.5 µM (inactive)
SK-MEL-28
  GI50: 38.5 µM (inactive)
HCT-116
  GI50: > 100 µM (inactive)
CAKI-1
  GI50: > 100 µM (inactive)
EKVX
  GI50: > 100 µM (inactive)
A498
  GI50: 60.5 µM (inactive)
MOLT-4
  GI50: > 100 µM (inactive)
T47D
  GI50: > 100 µM (inactive)
SK-MEL-2
  GI50: 21.4 µM (inactive)

## CN1[C@@H]2CCCC[C@H]2N(C)P1(=O)C(O)/C=C/c1ccccc1 (stereo partly drawn)
RPMI-8226
  GI50: > 100 µM (inactive)
786-0
  GI50: > 100 µM (inactive)
SK-MEL-5
  GI50: > 100 µM (inactive)
SW-620
  GI50: > 100 µM (inactive)
MCF7
  GI50: > 100 µM (inactive)
HOP-62
  GI50: > 100 µM (inactive)
RXF 393
  GI50: > 100 µM (inactive)
U-251
  GI50: > 100 µM (inactive)
SN12C
  GI50: > 100 µM (inactive)
A549
  GI50: > 100 µM (inactive)
SNB-75
  GI50: > 100 µM (inactive)
UACC-257
  GI50: > 100 µM (inactive)
NCI-H23
  GI50: > 100 µM (inactive)
COLO 205
  GI50: > 100 µM (inactive)
OVCAR-4
  GI50: > 100 µM (inactive)
NCI-H522
  GI50: > 100 µM (inactive)
HOP-92
  GI50: > 100 µM (inactive)
KM12
  GI50: > 100 µM (inactive)
ACHN
  GI50: > 100 µM (inactive)
MDA-MB-231
  GI50: > 100 µM (inactive)
SF-268
  GI50: > 100 µM (inactive)
Malme-3M
  GI50: > 100 µM (inactive)
IGROV-1
  GI50: > 100 µM (inactive)
TK-10
  GI50: > 100 µM (inactive)
HL-60
  GI50: > 100 µM (inactive)
SK-OV-3
  GI50: > 100 µM (inactive)
K562
  GI50: > 100 µM (inactive)
NCI-H460
  GI50: > 100 µM (inactive)
OVCAR-3
  GI50: > 100 µM (inactive)
SF-295
  GI50: > 100 µM (inactive)
MDA-N
  GI50: > 100 µM (inactive)
OVCAR-8
  GI50: > 100 µM (inactive)
HCC 2998
  GI50: > 100 µM (inactive)
OVCAR-5
  GI50: > 100 µM (inactive)
SNB-19
  GI50: > 100 µM (inactive)
UO-31
  GI50: > 100 µM (inactive)
M14
  GI50: > 100 µM (inactive)
HCT-15
  GI50: > 100 µM
CCRF-CEM
  GI50: > 100 µM (inactive)
Hs-578T
  GI50: > 100 µM (inactive)
UACC-62
  GI50: > 100 µM (inactive)
LOX IMVI
  GI50: > 100 µM (inactive)
PC-3
  GI50: > 100 µM (inactive)
NCI-H226
  GI50: > 100 µM (inactive)
NCI/ADR-RES
  GI50: > 100 µM (inactive)
DU-145
  GI50: > 100 µM (inactive)
HT-29
  GI50: > 100 µM (inactive)
MDA-MB-435
  GI50: > 100 µM (inactive)
BT-549
  GI50: > 100 µM (inactive)
SK-MEL-28
  GI50: > 100 µM (inactive)
HCT-116
  GI50: > 100 µM (inactive)
CAKI-1
  GI50: > 100 µM (inactive)
EKVX
  GI50: > 100 µM (inactive)
A498
  GI50: > 100 µM (inactive)
MOLT-4
  GI50: > 100 µM (inactive)
T47D
  GI50: > 100 µM (inactive)
SK-MEL-2
  GI50: > 100 µM (inactive)
